According to ChEMBL document CHEMBL4251634, “Synthesis and antimicrobial activity of pyrimidinyl 1,3,4-oxadiazoles, 1,3,4-thiadiazoles and 1,2,4-triazoles” (2018):
Active and inactive are the calls of the source. The calls are words filed in the database; no cut-off is given here.

Assays:
Format in all cases: functional
Staphylococcus aureus [1] = experiment: Antibacterial activity against Staphylococcus aureus assessed as diameter of inhibition zone at 12.5 ug/well after 24 hrs by agar well diffusion method
Staphylococcus aureus [2] = experiment: Antibacterial activity against Staphylococcus aureus assessed as diameter of inhibition zone at 25 ug/well after 24 hrs by agar well diffusion method
Staphylococcus aureus [3] = experiment: Antibacterial activity against Staphylococcus aureus assessed as diameter of inhibition zone at 50 ug/well after 24 hrs by agar well diffusion method
Staphylococcus aureus [4] = experiment: Antibacterial activity against Staphylococcus aureus assessed as diameter of inhibition zone at 100 ug/well after 24 hrs by agar well diffusion method; settings: for zone of inhibition at 100 µg/disc: read-out: DIZ
Bacillus subtilis [5] = experiment: Antibacterial activity against Bacillus subtilis assessed as diameter of inhibition zone at 12.5 ug/well after 24 hrs by agar well diffusion method; settings: for zone of inhibition at 12.5 µg/disc: read-out: DIZ
Bacillus subtilis [6] = experiment: Antibacterial activity against Bacillus subtilis assessed as diameter of inhibition zone at 25 ug/well after 24 hrs by agar well diffusion method; settings: for zone of inhibition at 25 µg/disc: read-out: DIZ
Bacillus subtilis [7] = experiment: Antibacterial activity against Bacillus subtilis assessed as diameter of inhibition zone at 50 ug/well after 24 hrs by agar well diffusion method; settings: for zone of inhibition at 50 µg/disc: read-out: DIZ
Bacillus subtilis [8] = experiment: Antibacterial activity against Bacillus subtilis assessed as diameter of inhibition zone at 100 ug/well after 24 hrs by agar well diffusion method; settings: for zone of inhibition at 100 µg/disc: read-out: DIZ
Pseudomonas aeruginosa [9] = experiment: Antibacterial activity against Pseudomonas aeruginosa assessed as diameter of inhibition zone at 12.5 ug/well after 24 hrs by agar well diffusion method; settings: for zone of inhibition at 12.5 µg/disc: read-out: DIZ
Pseudomonas aeruginosa [10] = experiment: Antibacterial activity against Pseudomonas aeruginosa assessed as diameter of inhibition zone at 25 ug/well after 24 hrs by agar well diffusion method; settings: read-out: DIZ
Pseudomonas aeruginosa [11] = experiment: Antibacterial activity against Pseudomonas aeruginosa assessed as diameter of inhibition zone at 50 ug/well after 24 hrs by agar well diffusion method; settings: read-out: DIZ
Pseudomonas aeruginosa [12] = experiment: Antibacterial activity against Pseudomonas aeruginosa assessed as diameter of inhibition zone at 100 ug/well after 24 hrs by agar well diffusion method; settings: read-out: DIZ
Klebsiella pneumoniae [13] = experiment: Antibacterial activity against Klebsiella pneumoniae assessed as diameter of inhibition zone at 12.5 ug/well after 24 hrs by agar well diffusion method; settings: for zone of inhibition at 12.5 µg/disc: read-out: DIZ
Klebsiella pneumoniae [14] = experiment: Antibacterial activity against Klebsiella pneumoniae assessed as diameter of inhibition zone at 25 ug/well after 24 hrs by agar well diffusion method; settings: for zone of inhibition at 25 µg/disc: read-out: DIZ
Klebsiella pneumoniae [15] = experiment: Antibacterial activity against Klebsiella pneumoniae assessed as diameter of inhibition zone at 50 ug/well after 24 hrs by agar well diffusion method; settings: read-out: DIZ
Klebsiella pneumoniae [16] = experiment: Antibacterial activity against Klebsiella pneumoniae assessed as diameter of inhibition zone at 100 ug/well after 24 hrs by agar well diffusion method; settings: read-out: DIZ
Aspergillus niger [17] = experiment: Antifungal activity against Aspergillus niger assessed as diameter of inhibition zone at 12.5 ug/well after 48 hrs by agar well diffusion method; settings: for zone of inhibition at 12.5 µg/disc: read-out: DIZ
Aspergillus niger [18] = experiment: Antifungal activity against Aspergillus niger assessed as diameter of inhibition zone at 25 ug/well after 48 hrs by agar well diffusion method; settings: for zone of inhibition at 25 µg/disc: read-out: DIZ
Aspergillus niger [19] = experiment: Antifungal activity against Aspergillus niger assessed as diameter of inhibition zone at 50 ug/well after 48 hrs by agar well diffusion method; settings: read-out: DIZ
Aspergillus niger [20] = experiment: Antifungal activity against Aspergillus niger assessed as diameter of inhibition zone at 100 ug/well after 48 hrs by agar well diffusion method; settings: read-out: DIZ
Penicillium chrysogenum [21] = experiment: Antifungal activity against Penicillium chrysogenum assessed as diameter of inhibition zone at 12.5 ug/well after 48 hrs by agar well diffusion method
Penicillium chrysogenum [22] = experiment: Antifungal activity against Penicillium chrysogenum assessed as diameter of inhibition zone at 25 ug/well after 48 hrs by agar well diffusion method; settings: for zone of inhibition at 25 µg/disc: read-out: DIZ
Penicillium chrysogenum [23] = experiment: Antifungal activity against Penicillium chrysogenum assessed as diameter of inhibition zone at 50 ug/well after 48 hrs by agar well diffusion method; settings: for zone of inhibition at 50 µg/disc: read-out: DIZ
Penicillium chrysogenum [24] = experiment: Antifungal activity against Penicillium chrysogenum assessed as diameter of inhibition zone at 100 ug/well after 48 hrs by agar well diffusion method; settings: for zone of inhibition at 100 µg/disc: read-out: DIZ

| SMILES | diameter of the inhibition zone (DIZ) (Staphylococcus aureus [1]) | diameter of the inhibition zone (DIZ) (Staphylococcus aureus [2]) | diameter of the inhibition zone (DIZ) (Staphylococcus aureus [3]) | diameter of the inhibition zone (DIZ) (Staphylococcus aureus [4]) | diameter of the inhibition zone (DIZ) (Bacillus subtilis [5]) | diameter of the inhibition zone (DIZ) (Bacillus subtilis [6]) | zone of inhibition at 100 µg/disc (Bacillus subtilis [8]) | zone of inhibition at 12.5 µg/disc (Pseudomonas aeruginosa [9]) | zone of inhibition at 25 µg/disc (Pseudomonas aeruginosa [10]) | zone of inhibition at 50 µg/disc (Pseudomonas aeruginosa [11]) | zone of inhibition at 100 µg/disc (Pseudomonas aeruginosa [12]) | zone of inhibition at 12.5 µg/disc (Klebsiella pneumoniae [13]) | zone of inhibition at 25 µg/disc (Klebsiella pneumoniae [14]) | zone of inhibition at 50 µg/disc (Klebsiella pneumoniae [15]) | zone of inhibition at 100 µg/disc (Klebsiella pneumoniae [16]) | zone of inhibition at 12.5 µg/disc (Aspergillus niger [17]) | zone of inhibition at 25 µg/disc (Aspergillus niger [18]) | zone of inhibition at 50 µg/disc (Aspergillus niger [19]) | zone of inhibition at 100 µg/disc (Aspergillus niger [20]) | diameter of the inhibition zone (DIZ) (Penicillium chrysogenum [21]) | other results |
| --- | --- | --- | --- | --- | --- | --- | --- | --- | --- | --- | --- | --- | --- | --- | --- | --- | --- | --- | --- | --- | --- |
| Cc1cc(SCc2nnc(-c3ccc(Br)cc3)o2)nc(SCc2nnc(-c3ccc(Br)cc3)o2)n1 | inactive | inactive | inactive | inactive | inactive | inactive | 8 mm | 9 mm | 11 mm | 13 mm | 15 mm | 8 mm | 10 mm | 12 mm | 15 mm | 13 mm | 15 mm | 17 mm | 19 mm | inactive | diameter of the inhibition zone (DIZ) (Bacillus subtilis [7]): inactive; zone of inhibition at 25 µg/disc (Penicillium chrysogenum [22]): 7 mm; zone of inhibition at 50 µg/disc (Penicillium chrysogenum [23]): 9 mm; zone of inhibition at 100 µg/disc (Penicillium chrysogenum [24]): 11 mm |
| Cc1ccc(-c2nnc(CSc3cc(C)nc(SCc4nnc(-c5ccc(C)cc5)s4)n3)s2)cc1 | inactive | inactive | inactive | – | – | – | 13 mm | 10 mm | 12 mm | 15 mm | 19 mm | 14 mm | 16 mm | 18 mm | 20 mm | 9 mm | 11 mm | 13 mm | 15 mm | inactive | zone of inhibition at 100 µg/disc (Staphylococcus aureus [4]): 8 mm; zone of inhibition at 12.5 µg/disc (Bacillus subtilis [5]): 8 mm; zone of inhibition at 25 µg/disc (Bacillus subtilis [6]): 10 mm; zone of inhibition at 50 µg/disc (Bacillus subtilis [7]): 11 mm; diameter of the inhibition zone (DIZ) (Penicillium chrysogenum [22]): inactive; diameter of the inhibition zone (DIZ) (Penicillium chrysogenum [23]): inactive; diameter of the inhibition zone (DIZ) (Penicillium chrysogenum [24]): inactive |
| Cc1ccc(-c2nnc(CSc3cc(C)nc(SCc4nnc(-c5ccc(C)cc5)o4)n3)o2)cc1 | inactive | inactive | inactive | inactive | inactive | inactive | – | – | 8 mm | 10 mm | 12 mm | – | – | 8 mm | 10 mm | – | – | 7 mm | 9 mm | inactive | diameter of the inhibition zone (DIZ) (Bacillus subtilis [7]): inactive; diameter of the inhibition zone (DIZ) (Bacillus subtilis [8]): inactive; diameter of the inhibition zone (DIZ) (Pseudomonas aeruginosa [9]): inactive; diameter of the inhibition zone (DIZ) (Klebsiella pneumoniae [13]): inactive; diameter of the inhibition zone (DIZ) (Klebsiella pneumoniae [14]): inactive; diameter of the inhibition zone (DIZ) (Aspergillus niger [17]): inactive; diameter of the inhibition zone (DIZ) (Aspergillus niger [18]): inactive; diameter of the inhibition zone (DIZ) (Penicillium chrysogenum [22]): inactive; diameter of the inhibition zone (DIZ) (Penicillium chrysogenum [23]): inactive; diameter of the inhibition zone (DIZ) (Penicillium chrysogenum [24]): inactive |
| Cc1cc(SCc2nnc(-c3ccc(Br)cc3)s2)nc(SCc2nnc(-c3ccc(Br)cc3)s2)n1 | – | – | – | – | – | – | 24 mm | 19 mm | 23 mm | 25 mm | 29 mm | 24 mm | 26 mm | 28 mm | 31 mm | 22 mm | 24 mm | 26 mm | 30 mm | – | zone of inhibition at 12.5 µg/disc (Staphylococcus aureus [1]; read-out: DIZ): 11 mm; zone of inhibition at 25 µg/disc (Staphylococcus aureus [2]; read-out: DIZ): 13 mm; zone of inhibition at 50 µg/disc (Staphylococcus aureus [3]; read-out: DIZ): 15 mm; zone of inhibition at 100 µg/disc (Staphylococcus aureus [4]): 17 mm; zone of inhibition at 12.5 µg/disc (Bacillus subtilis [5]): 17 mm; zone of inhibition at 25 µg/disc (Bacillus subtilis [6]): 19 mm; zone of inhibition at 50 µg/disc (Bacillus subtilis [7]): 21 mm; zone of inhibition at 12.5 µg/disc (Penicillium chrysogenum [21]; read-out: DIZ): 13 mm; zone of inhibition at 25 µg/disc (Penicillium chrysogenum [22]): 15 mm; zone of inhibition at 50 µg/disc (Penicillium chrysogenum [23]): 17 mm; zone of inhibition at 100 µg/disc (Penicillium chrysogenum [24]): 20 mm |
